Reference: patent US7807162B2, “Single domain VHH antibodies against von Willebrand factor” (Ablynx N.V., priority 2005, dated 2010)
Several values for one entry are separate records, joined by “and”; a condition that tells them apart may be missing. Equal entries are not always repeated.

Tests used:
[1] = PT during the Folts model; type: in vivo, baboon (Papio ursinus); conditions: 240 IU/kg dose
[2] = tested on: cyclic flow reductions (CFRs) in injured, stenosed femoral artery; experiment: Folts thrombosis model in baboons: length/inhibition of cyclic flow reductions (CFRs); type: in vivo, baboon (Papio ursinus); conditions: for effective dose: Folts model
Method: The study protocol that was applied is the original Folts model and some modifications described below (Folts J D, et al, Circulation. 1976; 54:365-370). Healthy male or female baboons (Papio ursinus) were used. The animals were 8-17 kg of weight and were disease-free for at least 2 weeks prior to use. The baboons were fed with dry standard food only. The baboons were used at different time points. […] Animals were anaesthetized and body temperature is maintained at 37° C. with a heating table. A segment of a femoral artery was dissected free from surrounding tissue. A shunt was placed between the femoral vein and femoral artery to obtain high shear rates. The mean and phasic blood flow was recorded continuously throughout the experiment. Baseline flow was recorded for 20 minutes. […] A clamp was placed over the injured site to create an external stenosis. A gradual decline in blood flow due to platelet adhesion and aggregation was observed. When flow was reduced to zero, blood flow was restored by opening the clamp to dislodge the platelet-rich thrombus. This repetitive pattern of decreasing blood flow following mechanical restoration is referred to as cyclic flow reductions (CFRs). Additional endothelial injury was repeated if needed to finally obtain stable CFRs in these baboons. The number of times the thrombus needed to be dislodged determines the number of CFRs. FIG. 24 illustrates blood flow pattern during the Folts model in baboons. […] This procedure was repeated for several times with escalating doses of the test substance. The anti-thrombotic effect was quantified by comparing the length of CFRs before and after drug administration. When full inhibition of CFRs was observed, a new injury was applied in order to confirm that the inhibition was an effect of the treatment but not of a natural healing phenomenon.

[3] = parameters: species or system baboon (Papio ursinus); conditions: in vivo
Method: The aPTT values observed during the Folts model studies are summarized. […] In these animals, aPTT values are prolonged from the 30-60 IU/kg dose on, as is also observed in patients. Heparin acts as an anticoagulant by forming a complex with antithrombin and catalyzing the inhibition of activated blood coagulation factors such as XIa, IXa, Xa and thrombin (factor IIa). These factors are all involved in the intrinsic coagulation cascade of which its functionality is measured in the aPTT test.

[4] = Bleeding analysis in Folts baboons (blood loss in gauzes); conditions: for therapeutic window in the Folts model: antithrombotic effect versus blood loss; for Average of total blood loss: sum of blood loss from the first five doses of test compound, relative to the second control gauze
Method: To analyze bleeding, an incision was made with a scalpel in the groin. This was done at 15 minutes after recording baseline flow, when the injury was made in the artery. Gauzes were inserted in the wound and replaced every 30 minutes just before each new dose of test compound. The amount of blood loss after each dose of test compound was determined by weighing the gauzes.

[5] = tested on: cyclic flow reductions (CFRs) in injured, stenosed femoral artery; experiment: Folts model in baboons: Aspegic-Heparin-Plavix combination with ALX-0081 on top; type: in vivo, baboon (Papio ursinus); conditions: combined with 5 mg/kg Aspirin and 60 IU/kg Heparin
Method: Extra Heparin was administered at different time points to sustain a certain level (aPTT should be at least doubled versus control). […] The anti-thrombotic effect was quantified by comparing the length of CFRs before and after drug administration. When full inhibition of CFRs was observed, a new injury was applied. Epinephrin was injected and continued till the end of the experiment. […] (1), 3, 10 or 30 μg/kg. […] The specifications of the baboons that were used in this study are represented in table 49.

[6] = tested on: ristocetin-induced platelet aggregation; experiment: Ristocetin-induced platelet aggregation (RIPA) ex vivo in blood of treated baboons; conditions: baboons 4-10; further +1 mg/kg Plavix on top of 5 mg/kg Aspegic + 60 IU/kg Heparin + 1 mg/kg Plavix
Method: Platelet aggregations were performed on a Chronolog whole blood and optical Aggregometer (Model 560CA, Chronolog, USA). PRP was prepared (collected on 0.38 mol/L citrate), by centrifuging the whole blood at 1200 rpm for 5 minutes. The upper fraction containing the PRP was carefully removed. The lower fraction was further centrifuged at 3000 rpm for 10 minutes to prepare platelet poor plasma (PPP). Platelets were counted in PRP and diluted in PPP to a final concentration of 200.000 platelets per microliter. 3 mg/ml ristocetin (DAKO) was added and aggregation was measured.
The GPIb-IX-V dependent platelet aggregation through vWF is measured using ristocetin as a modulator. The % aggregation is measured at each time point and at each dose.

ADAMTS-13 = experiment: Cleavage of recombinant A1-A2-A3 vWF fragment by ADAMTS-13 (Western Blot); type: biochemical, human; conditions: control; EDTA in NPP
Method: In a second type of experiment, different reaction mixtures were prepared as summarized in table 60, however, without the addition of the A1A2A3 construct. The A1A2A3 construct is a recombinant fragment consisting out of the A1, A2 and A3 domain of vWF. Mixtures were pre-incubated for 5 minutes at 37° C. after which the A1A2A3 fragment is added and the mixture is incubated in a waterbath overnight at 37° C. […] The blot was blocked for 2 hours at room temperature with blockbuffer (1:1 Odyssey blockbuffer in 1×TBS pH=7.4) and incubated with Rabbit polyclonal anti-vWF (DAKO). Alexa Fluor 680 goat anti-rabbit was used for detection. Scanning was done on the ODYSSEY to detect the degradation products.
In a second assay, a recombinant fragment containing the A1-A2-A3 domain of vWF was mixed with normal pool plasma (NPP) containing ADAMTS-13, resulting in proteolytic cleavage of the fragment which was observed by a Western Blot analysis.

[7] = tested on: cyclic flow reductions (CFRs) in injured, stenosed femoral artery; experiment: Use of vWF as an antidote for ALX-0081 in the baboon Folts model; type: in vivo, baboon (Papio ursinus)
Text: The experimental procedure followed the original Folts model with the modifications as described in the previous example 18.
Healthy male baboons (Papio ursinus) were used in this study. The animals were 9-12 kg of weight and were disease-free for at least 2 weeks prior to use. The baboons were fed with dry standard food only.

[8] = new injury applied at full inhibition of CFRs
[9] = number of experiments with inhibition / total number of independent repeats
[10] = Plavix final dose 2.5 mg/kg, individual baboons 9-12, 2.5 mg/kg

Molecule: Heparin
- effect on the PT time [1]: minor increase in PT
- Length of CFRs ([2]; Heparin final dose 15 IU/kg, individual baboons 6, 7, 8): 630 s and 208 s and 255 s
- Length of CFRs ([2]; Heparin final dose 30 IU/kg, individual baboons 6, 7, 8): 355 s and 241 s and 320 s
- Length of CFRs ([2]; Heparin final dose 60 IU/kg, individual baboons 6, 7, 8): 432 s and 246 s and 332 s
- Length of CFRs ([2]; Heparin final dose 120 IU/kg, individual baboons 6, 7, 8): 610 s and 160 s and 206 s
- Length of CFRs ([2]; Heparin final dose 240 IU/kg, individual baboons 6, 7, 8): >1800 s and 221 s and 169 s
- Length of CFRs ([2]; Heparin-treated, after Epinephrin, baboons 6, 7): 109 s and 65 s
- dose at which full inhibition of CFRs was obtained ([2]; baboon 6, first dose): 15 IU/kg
- CFRs upon a new injury ([2]; baboon 6, highest dose of 240 IU/kg): CFRs were inhibited even after a new injury
- Inhibition of CFRs ([2]; baboons 7 and 8, doses as high as 240 IU/kg): no inhibition of the CFRs could be obtained
- CFRs upon a new injury [2, 8]: the CFRs returned each time
- Inhibition of CFRs [2, 9]: 1/3
- Inhibition of CFRs after administration of Epinephrin [2, 9]: 0/2
- Inhibition of CFRs after new injury [2, 9]: 1/3
- dose from which aPTT values are prolonged [3]: 30-60 IU/kg

Molecule: COC(=O)[C@H](c1ccccc1Cl)N1CCc2sccc2C1 [Plavix]
- Blood loss relative to the second control gauze, Average ([4]; Plavix final dose 1 mg/kg): 1.4
- Blood loss relative to the second control gauze ([4]; Plavix final dose 1 mg/kg, individual baboons 9-12, 1 mg/kg): 0.6 and 1.3 and 1.6 and 1.2
- Blood loss relative to the second control gauze, Average ([4]; Plavix final dose 2.5 mg/kg): 1.2
- Blood loss relative to the second control gauze [4, 10]: 1.5 and 1.4 and 1.1 and 1.0
- Blood loss relative to the second control gauze, Average ([4]; Plavix final dose 5 mg/kg): 4.5
- Blood loss relative to the second control gauze ([4]; Plavix final dose 5 mg/kg, individual baboons 9-12, 5 mg/kg): 5.1 and 4.7 and 1.4 and 6.6
- Blood loss relative to the second control gauze, Average ([4]; Plavix final dose 10 mg/kg): 7.6
- Blood loss relative to the second control gauze ([4]; Plavix final dose 10 mg/kg, individual baboons 9-12, 10 mg/kg): 6.5 and 4.5 and 5.8 and 13.6
- Blood loss relative to the second control gauze, Average ([4]; Plavix final dose 20 mg/kg): 4.9
- Blood loss relative to the second control gauze ([4]; Plavix final dose 20 mg/kg, individual baboons 9-12, 20 mg/kg): 3.7 and 4.1 and 9.1 and 2.6
- therapeutic window in the Folts model [4]: much more narrow
- Blood loss relative to the second control gauze ([4]; at the highest dose): up to 9 fold
- Average of total blood loss [4]: 19.4
- time after injection at which the inhibitory effect on CFR length started ([2]; 2.5 mg/kg final dose): 10 min
- effective dose [2]: 5 mg/kg
- effective dose ([2]; inhibition of CFRs): 5 mg/kg
- Length of CFRs ([2]; Plavix final dose 1 mg/kg, individual baboons 9, 11, 12, 1 mg/kg): 189 s and 132 s and 179 s
- Length of CFRs [2, 10]: 883 s and 400 s and 258 s and >1800 s
- Length of CFRs ([2]; Plavix final dose 5 mg/kg, individual baboons 9-12): >1800 s
- Length of CFRs ([2]; Plavix final dose 10 mg/kg, individual baboons 9-12): >1800 s
- Length of CFRs ([2]; Plavix final dose 20 mg/kg, individual baboons 9-12): >1800 s
- Length of CFRs ([2]; Plavix-treated, after Epinephrin, individual baboons 9-12): 241 s and 91 s and 83 s and 66 s
- final dose at which full inhibition of CFRs was obtained ([2]; baboon 12): 2.5 mg/kg
- CFRs upon a new injury [2, 8]: CFRs remained inhibited
- Inhibition of CFRs [2, 9]: 4/4
- Inhibition of CFRs after administration of Epinephrin [2, 9]: 0/4
- Inhibition of CFRs after new injury [2, 9]: 4/4
- final dose at which full inhibition of CFRs was obtained ([2]; the other three baboons): 5 mg/kg
- dose of Plavix required for full inhibition, fold lower than Plavix alone [5]: 2.5 fold
- % ristocetin-induced platelet aggregation [6]: 42% and 63% and 66% and 83% and 59% and 76% and 60%

Molecule: O=C(O)CN(CCN(CC(=O)O)CC(=O)O)CC(=O)O [EDTA]
- effect on the cleavage of the A1-A2-A3 vWF fragment by ADAMTS-13 (ADAMTS-13): inhibition of cleavage of the fragment

Molecule: vWF: vWF evaluated as an antidote for ALX-0081
- reversal of the activity of ALX-0081 on CFRs ([7]; CFRs returned after 250 IU plus extra 250 IU of vWF): can be reversed by administration of vWF
- Length of CFRs ([7]; second 250 IU vWF after 30 μg/kg + 45 μg/kg/hour ALX-0081, baboons 1-3): 246 s and 256 s and 230 s

Molecule: Reopro: drug currently used in the clinic, comparator in the Folts model
- therapeutic window in the Folts model [4]: much more narrow
- Average of total blood loss [4]: 44
- effective dose [2]: 0.25 mg/kg
- effective dose ([2]; inhibition of CFRs, final dose, ALX-0081: + […] dose/kg/hour): 0.17 to 0.42 mg/kg
- Length of CFRs ([2]; Reopro final dose 20 μg/kg, individual baboons 13, 14, 15): 98 s and 82 s and 254 s
- Length of CFRs ([2]; Reopro final dose 70 μg/kg, individual baboons 13, 14, 15): 90 s (2×) and 248 s
- Length of CFRs ([2]; Reopro final dose 170 μg/kg, individual baboons 13, 14, 15): 90 s and >1800 s (2×)
- Length of CFRs ([2]; Reopro final dose 420 μg/kg, individual baboons 13, 14, 15): >1800 s
- Length of CFRs ([2]; Reopro final dose 920 μg/kg, individual baboons 13, 14, 15): >1800 s
- Length of CFRs ([2]; Reopro-treated, after Epinephrin, individual baboons 13, 14, 15): >1200 s
- final dose needed for full inhibition of the CFRs ([2]; baboons 13, 14 and 15, bolus injection only): 0.17 to 0.42 mg/kg
- CFRs upon a new injury [2, 8]: complete inhibition of the CFRs was retained
- Inhibition of CFRs [2, 9]: 3/3
- Inhibition of CFRs after administration of Epinephrin [2, 9]: 3/3
- Inhibition of CFRs after new injury [2, 9]: 3/3
